The text below walks through data of ChEMBL document CHEMBL1130009 (J Med Chem, 1997).

One experiment concerns the target D(3) dopamine receptor (Homo sapiens, UniProt P35462). Briefly: Binding affinity on human Dopamine receptor D3 expressed in CHO cells using radioligand [3H]-YM 09151. The class given is cell-based.
In a further experiment the target is T1, D(4) dopamine receptor (Homo sapiens, UniProt P21917).
T1 sequence (P21917 whole entry): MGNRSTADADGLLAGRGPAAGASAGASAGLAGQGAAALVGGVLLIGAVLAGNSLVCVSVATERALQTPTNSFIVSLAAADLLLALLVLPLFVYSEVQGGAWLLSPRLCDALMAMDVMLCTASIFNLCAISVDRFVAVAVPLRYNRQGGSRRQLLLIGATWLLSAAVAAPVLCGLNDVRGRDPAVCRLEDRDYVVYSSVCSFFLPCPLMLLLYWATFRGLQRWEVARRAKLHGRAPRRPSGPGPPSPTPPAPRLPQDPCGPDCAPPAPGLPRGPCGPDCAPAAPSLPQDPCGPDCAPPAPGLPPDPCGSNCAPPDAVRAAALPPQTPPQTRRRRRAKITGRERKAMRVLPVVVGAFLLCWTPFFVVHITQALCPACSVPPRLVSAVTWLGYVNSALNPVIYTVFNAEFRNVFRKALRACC
Briefly: Binding affinity on human Dopamine receptor D4 expressed in CHO cells using radioligand [3H]-YM 09151. The class given is cell-based.

Experiment [1] concerns the target T2, 5-hydroxytryptamine receptor 1A (Homo sapiens, UniProt P08908).
T2 sequence (P08908 whole entry): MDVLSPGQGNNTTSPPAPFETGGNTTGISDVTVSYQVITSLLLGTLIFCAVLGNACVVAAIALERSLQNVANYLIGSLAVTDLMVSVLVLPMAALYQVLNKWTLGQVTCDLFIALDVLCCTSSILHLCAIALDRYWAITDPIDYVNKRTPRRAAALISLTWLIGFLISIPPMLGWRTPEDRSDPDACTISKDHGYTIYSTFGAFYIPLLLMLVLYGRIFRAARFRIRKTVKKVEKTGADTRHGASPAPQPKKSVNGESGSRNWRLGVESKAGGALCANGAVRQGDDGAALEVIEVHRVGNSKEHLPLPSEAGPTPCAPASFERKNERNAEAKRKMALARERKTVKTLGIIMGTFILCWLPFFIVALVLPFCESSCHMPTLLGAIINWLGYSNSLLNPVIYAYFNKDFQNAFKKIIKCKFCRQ
Briefly: Binding affinity against 5-hydroxytryptamine 1A receptor.

Some results are limits rather than exact numbers.

D(3) dopamine receptor, sequence (P35462 whole entry): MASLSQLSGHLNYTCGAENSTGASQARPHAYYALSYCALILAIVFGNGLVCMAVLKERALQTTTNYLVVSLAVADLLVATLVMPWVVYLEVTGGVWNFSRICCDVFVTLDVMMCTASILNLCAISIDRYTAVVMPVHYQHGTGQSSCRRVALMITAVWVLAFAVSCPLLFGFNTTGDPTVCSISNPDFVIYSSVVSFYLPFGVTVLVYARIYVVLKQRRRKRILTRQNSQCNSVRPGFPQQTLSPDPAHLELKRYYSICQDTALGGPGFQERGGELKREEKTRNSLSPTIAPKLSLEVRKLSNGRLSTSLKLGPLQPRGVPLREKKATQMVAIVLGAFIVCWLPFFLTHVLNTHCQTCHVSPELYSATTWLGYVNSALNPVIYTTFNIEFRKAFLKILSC

In the case of `c1ccc(-c2nc(CN3CCN(c4ccncn4)CC3)c[nH]2)cc1`, the figures for the Ki at D(3) dopamine receptor and at D(4) dopamine receptor were more than 8000 nM and 1400 nM, respectively.

As for `c1ccc(-c2ncc(CN3CCN(c4ncccn4)CC3)[nH]2)cc1`, the figures for the inhibition constant Ki (in experiment [1]; on D(3) dopamine receptor; at D(4) dopamine receptor) were 181 nM, more than 8000 nM and 3.8 nM, respectively.

`c1ccc(-c2nc(CN3CCN(c4ccccc4)CC3)c[nH]2)cc1`: the Ki is 193 nM at D(3) dopamine receptor and 5.2 nM at D(4) dopamine receptor.

Consider `c1ccc(-c2ncc(CN3CCN(c4ccncc4)CC3)[nH]2)cc1`, for which the inhibition constant Ki at D(3) dopamine receptor is more than 8000 nM; on D(4) dopamine receptor it was more than 7300 nM.

As for `c1ccc(-c2nc(CN3CCN(c4cccnc4)CC3)c[nH]2)cc1`, affinity on D(4) dopamine receptor was put at a Ki of 73 nM.

For the compound `Cc1nc(-c2ccccc2)[nH]c1CN1CCN(c2ncccn2)CC1`, the inhibition constant Ki at D(3) dopamine receptor was 2980 nM; at D(4) dopamine receptor it was 6 nM.

Turning to `c1ccc(-c2nc(CN3CCN(c4cnccn4)CC3)c[nH]2)cc1`, the inhibition constant (Ki) is more than 6660 nM at D(3) dopamine receptor and 50 nM on D(4) dopamine receptor.

As for `c1ccc(-c2ncc(CN3CCN(c4ccccn4)CC3)[nH]2)cc1`, the inhibition constant (Ki) on D(3) dopamine receptor amounted to 1530 nM; at D(4) dopamine receptor it was 8.5 nM.

As a reminder, the Ki is the equilibrium dissociation constant of an inhibitor or competing ligand from its target.
